Measured values published in PubChem BioAssay (NCI).
Where “and” joins values, the source holds several entries; their conditions need not be identical. Equal values may be shown once.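 Briefly, cells in 96-well plates were exposed to five compound concentrations for 48 h, and endpoints were estimated by linear interpolation. GI50 is the concentration that inhibits growth by half. TGI denotes the concentration required for complete inhibition of growth.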

Key:
Test in all cases: growth of human tumour cells (NCI), 48 h
MCF7 breast = system: MCF7 breast
SN12C renal = system: SN12C renal
HCT-116 colon = system: HCT-116 colon
TK-10 renal = system: TK-10 renal
T-47D breast = system: T-47D breast
RXF 393 renal = system: RXF 393 renal
BT-549 breast = system: BT-549 breast

Row | SMILES | GI50 (MCF7 breast) | TGI (MCF7 breast) | GI50 (SN12C renal) | TGI (SN12C renal) | GI50 (HCT-116 colon) | TGI (HCT-116 colon) | GI50 (TK-10 renal) | TGI (TK-10 renal) | GI50 (T-47D breast) | TGI (T-47D breast) | GI50 (RXF 393 renal) | TGI (RXF 393 renal) | GI50 (BT-549 breast) | TGI (BT-549 breast)
1 | N#CCN/C=C\C(=O)c1ccc(Cl)cc1 | 32.5 µM | > 100 µM | 39.3 µM | > 100 µM | 29.9 µM | > 100 µM | 31.1 µM | > 100 µM | 33.9 µM | > 100 µM | 40.8 µM | > 100 µM | – | –
2 | COc1ccc(/C=N\Nc2ccc([N+](=O)[O-])cn2)cc1OC | – | – | > 100 µM | > 100 µM | – | – | 3.18 µM | 7.73 µM | – | – | 3.65 µM | 16.7 µM | > 100 µM | > 100 µM
3 | C=C(Nc1ccc([N+](=O)[O-])cc1[N+](=O)[O-])c1c/c(=N\NC(N)=S)c2ccccc2o1 | – | > 100 µM | – | > 100 µM | – | > 100 µM | – | > 100 µM | – | – | – | > 100 µM | – | > 100 µM
4 | CN/N=C(\C)C(CN(C)C)C(c1ccccc1)c1c(O)c2ccccc2oc1=O (stereo unspecified) | – | > 100 µM | – | > 100 µM | – | > 100 µM | – | > 100 µM | – | > 100 µM | – | > 100 µM | – | > 100 µM
5 | CCN(CC)CCCC(C)N=C(C1=C(C(=NC(C)CCCN(CC)CC)c2cccc(OC)c2)C(=O)NC1=O)c1cccc(OC)c1 (stereo unspecified) | 1.25 µM | 3.51 µM | 2.38 µM | 14.3 µM | 0.747 µM | 1.89 µM | 1.26 µM | 3.44 µM | 2.02 µM | 10.4 µM | 1.11 µM | 4.15 µM | 2.24 µM | 8.44 µM
6 | CCCC(CCC)C(=O)OCC1(CO)C/C(=C\c2ccc(F)cc2)C(=O)O1 (stereo unspecified) | 15.5 µM | 31.4 µM | 12.4 µM | 26.4 µM | 13.6 µM | 27.1 µM | 6.06 µM | 23.6 µM | 13.2 µM | 30.1 µM | 15.6 µM | 36.6 µM | 7.25 µM | 22.6 µM
7 | CO[C@H](C(=O)[C@@H](O)[C@@H](C)O)[C@@H]1Cc2cc3cc(OC4CC(OC5CC(O)C(O)C(C)O5)C(O)C(C)O4)c(C)c(O)c3c(O)c2C(=O)[C@H]1OC1CC(OC2CC(OC3CC(C)(O)C(O)C(C)O3)C(O)C(C)O2)C(O)C(C)O1 (stereo partly specified) | 0.0143 µg/mL and 0.0152 µg/mL | – | 0.0272 µg/mL and 0.011 µg/mL | – | 0.0194 µg/mL and 0.0116 µg/mL | – | 0.0792 µg/mL and 0.288 µg/mL | – | – | – | 0.0201 µg/mL | – | – | –
8 | O=C(O)C(Cl)(c1ccccc1)c1ccccc1 | – | > 100 µM | – | > 100 µM | – | > 100 µM | – | > 100 µM | – | > 100 µM | – | > 100 µM | – | > 100 µM
9 | CCn1c(-c2cc3ccccc3cc2O)nn(C(=O)c2c(Cl)cccc2Cl)c1=S | > 50 µM | > 50 µM | 23.7 µM | > 50 µM | 28.5 µM | > 50 µM | – | – | 21 µM | > 50 µM | 14.5 µM | > 50 µM | 15.6 µM | 36.7 µM
10 | Cc1cc(CC(C)CC(C)(C)C)n(O)c(=O)c1 (stereo unspecified) (tested in a mixture with another compound) | 0.401 µM | > 43 µM | 0.468 µM | 32.7 µM | 0.406 µM | 13.2 µM | 5.09 µM | > 74.7 µM | 0.725 µM | > 43.6 µM | 0.372 µM | 6.53 µM | 0.351 µM | 3.25 µM
11 | COc1cccc(C2c3cc4c(cc3OC(N3CCCC3)C2C)OCO4)c1O (stereo unspecified) | – | > 83.6 µM | – | 40.7 µM | – | 35 µM | – | 40.1 µM | – | > 94.9 µM | – | 17.4 µM | – | > 43 µM
12 | COc1cc(-c2nc(-c3nc4ccccc4[nH]3)cc3c2[nH]c2ccccc23)cc(OC)c1OC | 4.11 µM | > 100 µM | 6.27 µM | > 100 µM | 3.95 µM | > 100 µM | 4.71 µM | > 100 µM | 2.92 µM | > 100 µM | 3.25 µM | > 100 µM | 5.48 µM | > 100 µM
13 | O=C(/C=C/c1ccccc1)n1c(-c2ccc(Cl)cc2)nc2ccccc21 | 1.01 µM | 9.92 µM | 1.39 µM | 2.76 µM | 1.21 µM | 2.88 µM | 2.35 µM | 7.93 µM | 1.73 µM | 7.68 µM | 1.32 µM | 3.12 µM | 1.67 µM | 3.22 µM
14 | CCCCCCCCCCCCCCCCCC(=O)OCC(COC(=O)CCCN)OC(=O)CCCN (stereo unspecified) | – | 47.1 µM | – | 31.6 µM | – | 40.1 µM | – | 36.7 µM | – | 40 µM | – | 32.5 µM | – | –
15 | COC(=O)Cc1ccc(Oc2cnc3cc(F)c(F)cc3n2)cc1 | > 100 µM | > 100 µM | > 100 µM | > 100 µM | 26 µM | > 100 µM | > 100 µM | > 100 µM | – | – | > 100 µM | > 100 µM | > 100 µM | > 100 µM
16 | COc1cccc(/C=C/C(=O)c2ccc(Cl)cc2Cl)c1 | 7.84 µM | 47.1 µM | 8.72 µM | 16.5 µM | 4.94 µM | 19.1 µM | 12.8 µM | > 50 µM | – | – | 9.44 µM | 20.5 µM | 11 µM | 22.4 µM
17 | CC(C)(C)[Si](C)(C)OC1[C@@H](O[Si](C)(C)C(C)(C)C)[C@@H](CNC(=O)NC(=O)CCl)O[C@H]1n1cnc2c(NC(=O)Nc3ccccc3)ncnc21 (stereo partly specified) | 0.76 µM | 1.62 µM | 0.786 µM | 1.69 µM | 0.719 µM | 1.51 µM | 0.978 µM | 1.88 µM | 1.01 µM | 2.17 µM | 0.614 µM | 1.27 µM | 0.962 µM | 1.79 µM
18 | Cn1c2ccc(Br)cc2c2c3c(c4c5ccccc5[nH]c4c21)C(=O)N(O)C3=O | 0.04 µM | 0.309 µM | 0.0814 µM | 0.445 µM | 0.112 µM | 0.414 µM | 0.655 µM | 1.42 µM | 0.109 µM | 0.737 µM | 0.158 µM | 0.329 µM | 0.149 µM | 0.45 µM
19 | COc1cccc(NC(=O)c2sc3nc4c(cc3c2N)C(=O)CCC4)c1 | 0.0443 µM | > 100 µM | 0.461 µM | > 100 µM | 0.0745 µM | > 100 µM | > 100 µM | > 100 µM | – | – | 0.084 µM | 1.51 µM | 0.282 µM | > 90.5 µM
20 | O=C(Cc1ccccc1)Nn1c(-c2ccccc2)nc2ccccc2c1=O | – | > 100 µM | – | > 100 µM | – | > 100 µM | – | > 100 µM | – | > 100 µM | – | > 100 µM | – | > 100 µM
21 | Cc1nc(N2CCC3(CC2)CO[C@@H](C)[C@H]3N)c(CO)nc1Sc1ccnc(N)c1Cl | > 92.4 µM | > 100 µM | 12.2 µM | > 100 µM | 59.7 µM | > 100 µM | 0.336 µM | > 100 µM | 32.4 µM | > 100 µM | 2.53 µM | > 30.6 µM | 6.56 µM | > 100 µM
22 | Cc1cc(C)c(Cn2cnc3c(Cl)ncnc32)c(C)c1CCl | 30.5 µM | > 100 µM | > 100 µM | > 100 µM | 68.8 µM | > 100 µM | – | – | 24.9 µM | 95.3 µM | > 100 µM | > 100 µM | > 100 µM | > 100 µM
23 | O=Cc1ccc(-c2ccc(-c3nc4ccccc4o3)cc2)o1 | 14.8 µM | > 100 µM | – | – | 27.1 µM | 80.4 µM | 32.5 µM | 74.8 µM | 34.8 µM | > 100 µM | 22.6 µM | 54.5 µM | 35.4 µM | > 100 µM
24 | SCCSCCCSCCS | – | > 100 µM | – | > 100 µM | – | > 100 µM | – | – | – | > 100 µM | – | – | – | > 100 µM
25 | COc1cc(CNc2ccccc2C(=O)N2CCN(C(=O)c3cc(-c4cc(OC)c(OC)c(OC)c4)n4nc(-c5ccccc5)cc4n3)CC2)cc(OC)c1OC | 3.01 µM | > 100 µM | 17 µM | > 100 µM | – | – | 6.85 µM | > 100 µM | – | – | 2.32 µM | 7.54 µM | 3.27 µM | 49.1 µM
26 | CC(=O)On1c(-c2ccccc2-c2nc3ccccc3n2OC(C)=O)nc2ccccc21 | – | > 100 µM | – | > 100 µM | – | > 100 µM | – | > 100 µM | – | > 100 µM | – | – | – | > 100 µM
27 | CCC(CNc1cc(OC)cc2cccnc12)NC1CCCCC1 (stereo unspecified) | 20.7 µM | > 100 µM | > 100 µM | > 100 µM | 10.9 µM | 27.9 µM | – | – | 17.2 µM | 64.3 µM | 71.2 µM | > 100 µM | – | –
28 | O=c1c(Cl)c(Cl)c(=O)c2sc3cc(Cl)ccc3[nH]c1=2 | – | > 100 µM | – | – | – | > 100 µM | – | > 100 µM | – | > 100 µM | – | > 100 µM | – | –
29 | Cc1cc(N2CCSCC2)nc(NC2CCCC(Nc3ccnc4cc(Cl)ccc34)C2)n1 (stereo unspecified) | – | – | 1.9 µM | 4.37 µM | – | – | 2.05 µM | 4.58 µM | 2.41 µM | 5.9 µM | 1.41 µM | 2.93 µM | 1.71 µM | 3.79 µM
30 | O=Cc1cccc2c1Oc1c(cccc1C(=O)O)S2 | – | > 100 µM | – | > 100 µM | – | > 100 µM | – | > 100 µM | – | > 100 µM | – | – | – | > 100 µM
